# Literature values as cited in patent publication US20080269311A1, “Combination of Dpp-Iv Inhibitors and Compounds Modulating 5-Ht3 and/or 5-Ht4 Receptors” (priority 2004, published 2008).
# Target: T1, 5-HT3 receptor subtype (Homo sapiens, UniProt P46098)
# T1 sequence (P46098 24-478): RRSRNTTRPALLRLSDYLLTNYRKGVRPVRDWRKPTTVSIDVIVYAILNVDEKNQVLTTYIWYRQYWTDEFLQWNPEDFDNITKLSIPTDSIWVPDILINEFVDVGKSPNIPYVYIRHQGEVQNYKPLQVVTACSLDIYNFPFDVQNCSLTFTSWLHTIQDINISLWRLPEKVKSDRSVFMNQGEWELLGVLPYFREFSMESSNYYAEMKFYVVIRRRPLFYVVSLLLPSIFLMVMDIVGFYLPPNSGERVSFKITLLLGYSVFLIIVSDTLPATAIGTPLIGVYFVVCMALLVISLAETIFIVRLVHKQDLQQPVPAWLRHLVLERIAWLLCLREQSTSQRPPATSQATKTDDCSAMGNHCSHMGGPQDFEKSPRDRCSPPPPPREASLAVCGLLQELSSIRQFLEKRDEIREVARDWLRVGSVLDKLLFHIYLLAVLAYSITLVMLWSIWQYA
smiles,measurement,value
"CCCCCNC(=N)NN=Cc1c[nH]c2ccc(OC)cc12 [Tegaserod, 3-(5-methoxy-1H-indol-3-yl-methylene)-N-pentylcarbazimidamide]",binding to or stimulation of the 5-HT3 receptor subtype (selectivity),does neither bind to nor stimulate
